The source of these data is US9782368B2, “Use of N,N-bis-2-mercaptoethyl isophthalamide” (EMERAMED LIMITED, priority 2014, dated 2017).

Series [1] deals with IL-6 and IL-8 secretion in A549 cells. Briefly: Particle-induced secretion of pro-inflammatory cytokines (ELISA) in A549 cells. Format: cell-based. The following applies: pre-incubation 5 mM NAC (positive control); cell line not specified (A549 and BEAS-2B tested). The procedure:
Secretion of the pro-inflammatory cytokines interleukin (IL)-6, IL-8 (as well as GM-CSF and MCP-1) into cell media in response to particle exposure was measured in A549 and BEAS-2B cells using the following method.
Lung epithelial cells were seeded at 5×10^4 in 24-well plates. After pre-incubation with NBMI, the anti-oxidant compound, N-acetyl-L-cysteine (NAC), which was used as a positive control, or vehicle, for 3 hours the medium was removed.
Fresh media containing various particles (as below) in different concentrations was in a total volume of 0.5 ml for an additional 24 hours. The supernatants were then separated from the cells by centrifugation.
IL-8, IL-6, GM-CSF and MCP-1 were measured in the cell free fluid using the DuoSet ELISA Development kit (R&D Systems, Abingdon, UK) according to manufacturer's protocol.
Exposure to medium only served as negative control. Each experiment was performed twice with 4 replicates.
The effect of pre-incubation with 50 μM NBMI on particle-induced cytokine formation was tested at various concentrations of relevant particles.

The nature of series [2]: Ascorbate depletion assay, 9,10-PQ-sponsored oxidation, recycling of DHA. The following applies: 9,10-PQ model, 200 μM added at 60 minutes. The procedure: (§1) The kinetics of ascorbate oxidation, sponsored by both 1 μM 9,10-PQ and 2 μM copper sulphate (CuSO4), was examined using the ascorbate depletion assay (Kelly et al, Res. Rep. Health Eff. Inst., 163, 3 (2011). 9,10-PQ was employed so that the action of NBMI could be examined in isolation of its chelation properties.
(§2) All experiments were performed in triplicate in UV 96 well flat-bottomed plates (Greiner bio-one) at a final volume of 200 μL. Exposures were initiated by the addition of 20 μL of a concentrated stock of ascorbate (2 mM) into each well containing 160 μL of Chelex-100 resin treated water (containing 10% DMSO), plus either 10 μL of water, CuSO4 stock solution at 4 mM or 9,10-PQ stock solution at 2 mM, and 10 μL of NMBI (4 mM and […]).
(§3) All solutions were prepared in Chelex-100 resin treated water (containing 10% DMSO). This yielded final concentrations in the wells of […], 2 μM CuSO4, or 1 μM 9,10-PQ and between 10 and 200 μM of NBMI.
(§4) Immediately prior to the addition of the ascorbate to each assay well, the plate was pre-incubated for 10 minutes at 37° C. in a plate reader (Spectra Max 190). During the exposure, the plate was maintained at this temperature. After addition of ascorbate, the concentration remaining in each well was monitored every 2 minutes for a period of two hours by measuring the absorbance at 265 nm. The ascorbate concentration was determined with reference to a standard curve, with the rate of ascorbate oxidation determined by performing a linear regression through the initial part of a concentration verses time plot using Microcal Software Limited's OriginLab (version 5.0). This was performed for each of the triplicates and the rate of ascorbate depletion was finally expressed as mean mol s 1×10^−9 depletion of ascorbate±standard deviation.
(§5) For the experiments in which the impact of adding NBMI to the ascorbate was measured, CuSO4 and 9,10-PQ depletion assays were examined later in the time course. The plates were ran with 190 μL only for the first 55-60 minutes, after which they were removed from the plate reader and 10 μL of either the NMBI or the known reducing agent, DTT stock solution, or water was added to each well. The plate was then returned to the plate reader and the absorbance at 265 nm monitored for a further 60 minutes.
(§6) The immediate increase in the measured ascorbate concentrations was determined and is referred to as the ‘jump’, as a measure of immediate recycling capacity. The sustained ‘increase’ over the remaining 60 minutes of the incubation was also determined.

Series [3] is described as follows: Ascorbate depletion assay, CuSO4-sponsored oxidation, recycling of DHA. The following applies: CuSO4 model, 200 μM added at 60 minutes. The procedure: as §1, §2, §3, §4, §5, §6

With `CC(=O)N[C@@H](CS)C(=O)O` [NAC, N-acetyl-L-cysteine, reference compound], the “reduction of secretion of inflammatory cytokines” value in series [1] is on record as “effective in reducing the secretion of inflammatory cytokines”.
For `O[C@H](CS)[C@H](O)CS` (racemic) [DTT, dithiothreitol, reference compound], in series [2], the “immediate rebound increase in ascorbate” value was found to be 5.1 µM and the “whether recovery of ascorbate was sustained” value is recorded as “not sustained”. For the same compound, in series [3], the “immediate 'jump' in ascorbate concentration” value stood at 7.93 ± 6.58 µM and the “sustained 'increase' in ascorbate over remaining 60 minutes” value turned out to be 10.79 ± 2.45 µM.
